# Values of other authors as cited in patent US20070269404A1, “Controlling Sugar Feeding Insects” (Westham Ltd., priority 2006, published 2007).
# System: birds and mammals
# Conditions: Williams et al. 2003
substance,measurement,value
Spinosad,toxicity to birds and mammals,very little toxicity
